Data taken from US20100278733A1, “COMPOSITION FOR DIAGNOSIS OF AMYLOID-RELATED DISEASE” (priority 2007, published 2010).

Tests used:
[1] = In-vivo radioactivity distribution experiment using normal mice (Example 2); conditions: Example 2 numbering; for In-vivo radioactivity distribution: blood / In-vivo radioactivity distribution: brain / In-vivo radioactivity distribution: heart / In-vivo radioactivity distribution: intestine / In-vivo radioactivity distribution: kidney / In-vivo radioactivity distribution: liver / In-vivo radioactivity distribution: lung / In-vivo radioactivity distribution: pancreas / In-vivo radioactivity distribution: spleen / In-vivo radioactivity distribution: stomach: normal mice, intravenous
Protocol: Radioactive iodine labeling compounds were diluted with physiological saline containing 10% EtOH. To each of four or five 5-week-old male ddY mice (20 to 25 g) per group, […] of a labeled compound, [^125I]Compound 7, 10, 13, or 14 (0.2 to 0.4 mCi), was administered from the caudal vein. Animals were decapitated at 2, 10, 30, or 60 min, blood was collected, the major organs were isolated, and then weights and radioactivities thereof were measured.

[2] = target: T1, Aβ(1-42) aggregate (Homo sapiens, UniProt P05067); assay: Binding inhibition experiment using Aβ(1-42) aggregate, Ki values (Example 2); conditions: compound numbers of Example 2; for Ki: radioactive ligand [^125I]CL-NMe2, mean ± standard error of 3 experiments (compound 4: 6 experiments), read-out: Ki values calculated by inhibition experiment
T1 construct: Amyloid β protein (Human, 1-42) [TFA form] was purchased from Peptide Institute, Inc; purchased Peptide Institute, Inc
T1 sequence (P05067 672-713 limits assumed): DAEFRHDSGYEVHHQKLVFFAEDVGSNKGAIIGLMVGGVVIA
Protocol: As a radioactive iodine-125 (^125I), Iodine-125 (3.7 GBq/mL) manufactured by MP Biomedicals, Inc. was used. Reverse phase HPLC was performed at a flow rate of 1.0 mL/min using a Cosmosil 5C18-AR-II column (4.6×150 mm) manufactured by Nacalai Tesque Inc. and ultrapure water:acetonitrile=3:7 as an elution solvent. ^1HNMR was measured using Varian Gemini 300 and tetramethylsilane as an internal standard substance. Mass spectrometry was performed using JEOL IMS-DX300. Preparative TLC was performed using 12 PLC plates 20×20-cm-Silica gel 60 F254, 2 mm manufactured by MERCK. Amyloid β protein (Human, 1-42) was purchased from Peptide Institute, Inc., and special grade reagents were used as other reagents.
Aβ(1-42) was dissolved in 10 mM phosphate buffer containing 1 mM EDTA (pH 7.4) at a concentration of 0.25 mg/mL, and the mixture was incubated at 37° C. for 42 h to prepare an Aβ(1-42) aggregate.
[…] of 10% EtOH solution, […] of a solution of [^125I]4-diethylamino-4′-iodochalcone ([^125I]CL-NMe2) in 10% ethanol, and […] of a sample solution at various concentrations (0 to 20 mM) were mixed, […] of an Aβ(1-42) aggregate solution was finally added, and the mixture was allowed to stand at room temperature for 3 h. Aβ(1-42) aggregate-bound compounds and nonbound compounds were separated with a Brandel M-24R cell harvester using a Whatman GF/B filter. Radioactivities remaining on the filter after filtration were measured with a γ-counter, and inhibition curves were created using Graph Pad Prism 4.0 to calculate inhibition constants (Ki values).

[3] = In-vivo radioactivity distribution experiment in normal mice (Reference Example 2); conditions: Reference Example 2 numbering; for Radioactivity concentration in the brain of mice: intravenous
Protocol: Labeled compounds, [^11C]Compounds 23 and 7, were diluted with physiological saline containing 10% ethanol. 100 μL of each of the labeled compounds was intravenously infused to five 5-week-old male ddY mice per group, the animals were decapitated at 2, 10, 30, or 60 min, blood was collected, and then weights and radioactivities thereof were measured.

CNc1ccc(C=CC(=O)c2ccc(I)s2)cc1 [Compound 13 in Example 2, 1-(5-iodo-2-thienyl)-3-(4-methylaminophenyl)-prop-2-en-1-one]
stability in the organism ([1]; in words: radioactivity accumulation in the stomach, retention in blood, deiodination): instability in the organism | In-vivo radioactivity distribution: blood ([1]; 2 min): 3.00 (0.83) percent of the dose/g | In-vivo radioactivity distribution: brain ([1]; 2 min): 2.56 (0.44) percent of the dose/g | In-vivo radioactivity distribution: heart ([1]; 2 min): 3.55 (0.57) percent of the dose/g | In-vivo radioactivity distribution: intestine ([1]; 2 min): 1.60 (0.32) percent of the dose/g | In-vivo radioactivity distribution: kidney ([1]; 2 min): 4.50 (1.00) percent of the dose/g | In-vivo radioactivity distribution: liver ([1]; 2 min): 8.41 (1.24) percent of the dose/g | In-vivo radioactivity distribution: lung ([1]; 2 min): 5.61 (1.33) percent of the dose/g | In-vivo radioactivity distribution: pancreas ([1]; 2 min): 3.73 (0.67) percent of the dose/g | In-vivo radioactivity distribution: spleen ([1]; 2 min): 2.06 (0.49) percent of the dose/g | In-vivo radioactivity distribution: stomach ([1]; 2 min): 1.48 (0.39) percent of the dose | In-vivo radioactivity distribution: blood ([1]; 10 min): 3.68 (0.70) percent of the dose/g | In-vivo radioactivity distribution: brain ([1]; 10 min): 1.13 (0.16) percent of the dose/g | In-vivo radioactivity distribution: heart ([1]; 10 min): 2.48 (0.36) percent of the dose/g | In-vivo radioactivity distribution: intestine ([1]; 10 min): 3.86 (0.20) percent of the dose/g | In-vivo radioactivity distribution: kidney ([1]; 10 min): 6.59 (1.34) percent of the dose/g | In-vivo radioactivity distribution: liver ([1]; 10 min): 13.29 (1.65) percent of the dose/g | In-vivo radioactivity distribution: lung ([1]; 10 min): 6.33 (1.42) percent of the dose/g | In-vivo radioactivity distribution: pancreas ([1]; 10 min): 2.53 (0.72) percent of the dose/g | In-vivo radioactivity distribution: spleen ([1]; 10 min): 4.00 (1.55) percent of the dose/g | In-vivo radioactivity distribution: stomach ([1]; 10 min): 5.13 (1.67) percent of the dose | In-vivo radioactivity distribution: blood ([1]; 30 min): 2.29 (0.32) percent of the dose/g | In-vivo radioactivity distribution: brain ([1]; 30 min): 0.28 (0.06) percent of the dose/g | In-vivo radioactivity distribution: heart ([1]; 30 min): 1.45 (0.17) percent of the dose/g | In-vivo radioactivity distribution: intestine ([1]; 30 min): 4.36 (1.49) percent of the dose/g | In-vivo radioactivity distribution: kidney ([1]; 30 min): 3.16 (0.80) percent of the dose/g | In-vivo radioactivity distribution: liver ([1]; 30 min): 5.10 (1.12) percent of the dose/g | In-vivo radioactivity distribution: lung ([1]; 30 min): 3.17 (0.52) percent of the dose/g | In-vivo radioactivity distribution: pancreas ([1]; 30 min): 1.48 (0.34) percent of the dose/g | In-vivo radioactivity distribution: spleen ([1]; 30 min): 2.06 (0.28) percent of the dose/g | In-vivo radioactivity distribution: stomach ([1]; 30 min): 9.94 (1.69) percent of the dose | In-vivo radioactivity distribution: blood ([1]; 60 min): 2.89 (0.49) percent of the dose/g | In-vivo radioactivity distribution: brain ([1]; 60 min): 0.15 (0.03) percent of the dose/g | In-vivo radioactivity distribution: heart ([1]; 60 min): 1.43 (0.29) percent of the dose/g | In-vivo radioactivity distribution: intestine ([1]; 60 min): 6.26 (1.78) percent of the dose/g | In-vivo radioactivity distribution: kidney ([1]; 60 min): 2.52 (0.48) percent of the dose/g | In-vivo radioactivity distribution: liver ([1]; 60 min): 4.32 (0.75) percent of the dose/g | In-vivo radioactivity distribution: lung ([1]; 60 min): 3.11 (0.66) percent of the dose/g | In-vivo radioactivity distribution: pancreas ([1]; 60 min): 1.76 (0.40) percent of the dose/g | In-vivo radioactivity distribution: spleen ([1]; 60 min): 2.52 (0.36) percent of the dose/g | In-vivo radioactivity distribution: stomach ([1]; 60 min): 14.32 (1.81) percent of the dose | Ki [2]: 14.1 ± 0.6 nM

CN(C)c1ccc(C(=O)/C=C/c2ccc(I)cc2)cc1 [Compound 10 in Example 2, 4-iodo-4′-dimethylaminochalcone]
In-vivo radioactivity distribution: blood ([1]; 2 min): 1.87 (0.23) percent of the dose/g | In-vivo radioactivity distribution: brain ([1]; 2 min): 2.77 (0.37) percent of the dose/g | In-vivo radioactivity distribution: heart ([1]; 2 min): 5.23 (0.61) percent of the dose/g | In-vivo radioactivity distribution: intestine ([1]; 2 min): 2.69 (0.43) percent of the dose/g | In-vivo radioactivity distribution: kidney ([1]; 2 min): 6.30 (0.85) percent of the dose/g | In-vivo radioactivity distribution: liver ([1]; 2 min): 13.99 (1.57) percent of the dose/g | In-vivo radioactivity distribution: lung ([1]; 2 min): 6.02 (0.60) percent of the dose/g | In-vivo radioactivity distribution: pancreas ([1]; 2 min): 3.85 (1.97) percent of the dose/g | In-vivo radioactivity distribution: spleen ([1]; 2 min): 2.35 (0.35) percent of the dose/g | In-vivo radioactivity distribution: stomach ([1]; 2 min): 0.76 (0.13) percent of the dose | In-vivo radioactivity distribution: blood ([1]; 10 min): 1.89 (0.61) percent of the dose/g | In-vivo radioactivity distribution: brain ([1]; 10 min): 2.04 (0.26) percent of the dose/g | In-vivo radioactivity distribution: heart ([1]; 10 min): 2.05 (0.37) percent of the dose/g | In-vivo radioactivity distribution: intestine ([1]; 10 min): 9.27 (1.36) percent of the dose/g | In-vivo radioactivity distribution: kidney ([1]; 10 min): 4.51 (1.29) percent of the dose/g | In-vivo radioactivity distribution: liver ([1]; 10 min): 10.29 (2.06) percent of the dose/g | In-vivo radioactivity distribution: lung ([1]; 10 min): 3.92 (0.76) percent of the dose/g | In-vivo radioactivity distribution: pancreas ([1]; 10 min): 2.12 (0.31) percent of the dose/g | In-vivo radioactivity distribution: spleen ([1]; 10 min): 1.52 (0.19) percent of the dose/g | In-vivo radioactivity distribution: stomach ([1]; 10 min): 0.89 (0.28) percent of the dose | In-vivo radioactivity distribution: blood ([1]; 30 min): 1.51 (0.40) percent of the dose/g | In-vivo radioactivity distribution: brain ([1]; 30 min): 0.63 (0.06) percent of the dose/g | In-vivo radioactivity distribution: heart ([1]; 30 min): 1.10 (0.16) percent of the dose/g | In-vivo radioactivity distribution: intestine ([1]; 30 min): 12.50 (2.49) percent of the dose/g | In-vivo radioactivity distribution: kidney ([1]; 30 min): 4.10 (1.15) percent of the dose/g | In-vivo radioactivity distribution: liver ([1]; 30 min): 6.69 (1.21) percent of the dose/g | In-vivo radioactivity distribution: lung ([1]; 30 min): 1.95 (0.25) percent of the dose/g | In-vivo radioactivity distribution: pancreas ([1]; 30 min): 0.85 (0.10) percent of the dose/g | In-vivo radioactivity distribution: spleen ([1]; 30 min): 0.82 (0.15) percent of the dose/g | In-vivo radioactivity distribution: stomach ([1]; 30 min): 0.73 (0.23) percent of the dose | In-vivo radioactivity distribution: blood ([1]; 60 min): 1.38 (0.54) percent of the dose/g | In-vivo radioactivity distribution: brain ([1]; 60 min): 0.42 (0.11) percent of the dose/g | In-vivo radioactivity distribution: heart ([1]; 60 min): 0.84 (0.26) percent of the dose/g | In-vivo radioactivity distribution: intestine ([1]; 60 min): 20.09 (5.48) percent of the dose/g | In-vivo radioactivity distribution: kidney ([1]; 60 min): 4.59 (1.57) percent of the dose/g | In-vivo radioactivity distribution: liver ([1]; 60 min): 7.06 (2.45) percent of the dose/g | In-vivo radioactivity distribution: lung ([1]; 60 min): 1.71 (0.29) percent of the dose/g | In-vivo radioactivity distribution: pancreas ([1]; 60 min): 0.84 (0.22) percent of the dose/g | In-vivo radioactivity distribution: spleen ([1]; 60 min): 0.89 (0.12) percent of the dose/g | In-vivo radioactivity distribution: stomach ([1]; 60 min): 2.17 (1.24) percent of the dose | Ki [2]: 13.3 ± 1.9 nM

CN(C)c1ccc(C(=O)C=Cc2ccc(Br)s2)cc1 [Compound 46 in Example 2, 3-(5-bromo-2-thienyl)-1-(4-dimethylaminophenyl)-prop-2-en-1-one]
Ki [2]: 106 ± 7.1 nM

COc1cc(/C=C/C(=O)c2ccc(I)cc2)ccc1O [Compound 40 in Example 2, 4-hydroxy-4′-iodo-3-methoxychalcone]
binding affinity for the Aβ(1-42) aggregate ([2]; in words, derivatives with two substituents on Ring A): no compound showed a high binding affinity | Ki [2]: 1160 ± 154 nM

CN(C)c1ccc(/C=C/C(=O)c2ccc(F)cc2)cc1 [Compound 23 in Reference Example 2, (E)-3-(4-(dimethylamino)phenyl)-1-(4-fluorophenyl) prop-en-1-one]
ratio of brain radioactivity at 60 min to that at 2 min after administration [3]: 28.3% | ratio of the radioactivity remaining in the brain at 30 min after administration to that at 2 min after administration [3]: 28.3% | Radioactivity concentration in the brain of mice ([3]; 2 min after administration, listed as [^11C] 23): 3.68 ± 0.35 % ID/g | Radioactivity concentration in the brain of mice ([3]; 2 min after administration, listed as [^11C]Compound 23): 3.68 % ID/g | Radioactivity concentration in the brain of mice ([3]; 10 min after administration): 1.53 ± 0.14 % ID/g | Radioactivity concentration in the brain of mice ([3]; 30 min after administration): 1.04 ± 0.15 % ID/g | Radioactivity concentration in the brain of mice ([3]; 60 min after administration, listed as [^11C] 23): 1.04 ± 0.20 % ID/g | Radioactivity concentration in the brain of mice ([3]; 60 min after administration, listed as [^11C]Compound 23): 1.04 % ID/g

CNc1ccc(C(=O)C=Cc2ccc(Br)s2)cc1 [Compound 45 in Example 2, 3-(5-bromo-2-thienyl)-1-(4-methylaminophenyl)-prop-2-en-1-one]
Ki [2]: 198 ± 48.6 nM

Nc1ccc(C(=O)C=Cc2ccc(Br)s2)cc1 [Compound 44 in Example 2, 3-(5-bromo-2-thienyl)-1-(4-aminophenyl)-prop-2-en-1-one]
Ki [2]: 476 ± 47.9 nM
